According to patent US20240285566A1, “SUBCUTANEOUS FORMULATION AND METHODS FOR TREATING EDEMA REFRACTORY TO ORAL DIURETICS” (RESQ Pharmaceuticals LLC, priority 2021, published 2024):

Columns and labels:
in vivo = experiment: in vivo; design: species or system beagle dogs; conditions: dog
Procedure: The purpose of this study was to assess the pharmacokinetic profiles of various formulations of bumetanide, including arginine bumetanide salts (FS-5 and FS-6) and potassium bumetanide salts (FS-3 and FS-4) for subcutaneous administration, and an bumetanide intranasal formulation (F82), which are described in Table 60, when each formulation is administered as a single subcutaneous, or intranasal in different vehicles when compared to single IV administration dose in male and female beagle dogs.
A total of four dogs were assigned to the study (3 males, 9-13 kg and 1 female, 7-10 kg) ranging from 1 to 3 years old.
The study was conducted in 6 Events in the same animals, separated by at least 48 hours or more washout period between events.
For subcutaneous administration the bumetanide formulations were injected subcutaneously (100 μL/dog), using a 25G hypodermic needle. After each application, successful dosing was verified by visual inspection of the dog injection site and after 1 minute of dosing. Only successful administrations will be accepted.
For intranasal administration, each dog was held in an upright position with the nose pointing up. The test article (50 μL) was delivered into each nostril (total 100 μL/dog). The nose was held pointing up for ˜60 seconds after dosing. After each application, successful dosing was verified by visual inspection of the pipette tip and the dog nostril.
For intravenous administration, the commercially available injection of bumetanide (Walgreens, 0.25 mg/mL) was used and administered via the cephalic vein over a period of 30 seconds (4.0 mL/dog, IV).
Body weights of the dogs were measured for each dog prior to each dose on the day of dose, and approximately 48 hours post-dose for each event. For some events, the 48 hour post-dose weight was the same weight as the pre-dose weight for the following dose. Urine production was also monitored post-dose to assess diuresis by making observations at 30 minutes, 1, 2, 3 and 4 hours post-dose. Urine volume was not measured. On each day of dosing, blood (˜600 μL/timepoint, jugular or cephalic vein) were collected in red top tubes with clotting activator (Sarstedt, Inc-41.1392.105 or similar) to obtain serum at the times described in Table 61. Blood was centrifuged at 5000×g for 10 minutes at 4° C. If the samples were collected outside the collection window, they were not be considered a protocol deviation. Serum was divided into 2 aliquots of ˜150 μL each and stored frozen at −20° C. until it was shipped to Climax Laboratories, Inc. on dry ice.

[1] = Solubility of bumetanide free acid in water with and without tetradecyl-β-D-maltoside (HPLC); type: physicochemical
Procedure: Bumetanide, 10 mg, in its free acid form was added to 1 mL of deionized water and mixed using a vortex and sonicator. The solution was filtered using a 0.22 μm nylon syringe filter. To 900 μL deionized water, 100 μL of the filtered bumetanide solution was added before being characterized for the concentration of the bumetanide in solution using HPLC. The concentration of bumetanide was determined using a standard curve generated by bumetanide solutions of known concentrations. […] Therefore, to the 10 mg of bumetanide, 1 mL of deionized water containing 1.0%, 0.5% or 0.1% of the surfactant tetradecyl-β-D-maltoside. The bumetanide was then solubilized using a vortex and sonicator, after which it was filtered using a 0.22 μm nylon syringe filter. To 900 μL deionized water, 100 μL of the filtered bumetanide solution was added before being characterized for the concentration of the bumetanide in solution using HPLC. The resulting bumetanide concentrations are recorded in Table 1.

[2] = Stability of arginine and potassium bumetanide salts over four weeks; type: physicochemical; conditions: for stability of the salt solution: at either 5° C. or 25° C.
Procedure: The stability of the arginine and potassium bumetanide salts was monitored over a four week period with storage at either 2-8° C. or 25° C. for that time period. The bumetanide salt solutions were evaluated on the basis of pH, concentration of bumetanide in solution, the percent assay recovery and the presence of an impurity (see Tables 17 and 18).

Row | Structure (SMILES) | Assay ([2]; 1 week at 5° C.) [mg/mL] | pH ([2]; 1 week at 5° C.) | Assay ([2]; 1 week at 25° C.) [mg/mL] | pH ([2]; 1 week at 25° C.) | Assay ([2]; 2 weeks at 5° C.) [mg/mL] | pH ([2]; 2 weeks at 5° C.) | Assay ([2]; 2 weeks at 25° C.) [mg/mL] | pH ([2]; 2 weeks at 25° C.) | Assay ([2]; 4 weeks at 5° C.) [mg/mL] | pH ([2]; 4 weeks at 5° C.) | Assay ([2]; 4 weeks at 25° C.) [mg/mL] | pH ([2]; 4 weeks at 25° C.) | Assay ([2]; T0) [mg/mL] | Osmolality ([2]; T0) [mOsm/kg] | Viscosity ([2]; T0) [cP] | pH ([2]; T0) | stability of the salt solution [2] | also measured
1 | CCCCNc1cc(C(=O)O)cc(S(N)(=O)=O)c1Oc1ccccc1 [Bumetanide] |  |  |  |  |  |  |  |  |  |  |  |  |  |  |  |  |  | AUC (in vivo; beagle, iv, 1 mg): 140 ng·h/mL; AUC (in vivo; beagle, iv, 1 mg, AUC (ng*h/mL)): 140 ng·h/mL; AUC (in vivo; both sexes, beagle, iv, 1 mg): 185 ng·h/mL; AUC(0-t) (in vivo; both sexes, beagle, iv, 1 mg): 185 ng·h/mL; AUC (in vivo; both sexes, beagle, iv, 1 mg, AUC (ng*h/mL)): 185 ng·h/mL; solubility in water ([1]; free acid form, deionized water, no surfactant): Nearly no bumetanide in the free acid form was soluble water; solubility in water ([1]; not in a salt form, in the presence of surfactant): incredibly low solubility in water
2 | CCCCNc1cc(C(=O)[O-])cc(S(N)(=O)=O)c1Oc1ccccc1.[K+] [potassium bumetanide salt] | 5.18 | 7.0 | 5.10 | 7.0 | 4.97 | 7.0 | 4.96 | 7.1 | 5.00 | 7.0 | 5.03 | 7.1 | 5.10 | 317 | 1.3 | 7.0 | stable for up to four weeks | serum concentrations compared to IV administration of bumetanide (in vivo): higher serum concentrations
3 | CCCCNc1cc(C(=O)O)cc(S(N)(=O)=O)c1Oc1ccccc1.N=C(N)NCCCC(N)C(=O)O [arginine bumetanide salt] | 5.08 | 7.0 | 5.06 | 7.1 | 4.99 | 7.0 | 4.97 | 7.0 | 4.89 | 7.0 | 4.97 | 7.1 | 5.07 | 335 | 1.3 | 7.0 | stable for up to four weeks | impurity by HPLC ([2]; initially or after four weeks, 5° C. and 25° C.): no impurity was detected
